What all share (assay type): in vitro ADME
Conditions in all cases: human liver microsomes
In general terms: Microsomes from liver hold many membrane-bound enzymes, among them those of drug oxidation.

One test has as its target T1, CYP1A2 (Homo sapiens, UniProt P05177).
T1 construct: from tissue; host or cells: human liver microsomes
T1 sequence (P05177 1-516): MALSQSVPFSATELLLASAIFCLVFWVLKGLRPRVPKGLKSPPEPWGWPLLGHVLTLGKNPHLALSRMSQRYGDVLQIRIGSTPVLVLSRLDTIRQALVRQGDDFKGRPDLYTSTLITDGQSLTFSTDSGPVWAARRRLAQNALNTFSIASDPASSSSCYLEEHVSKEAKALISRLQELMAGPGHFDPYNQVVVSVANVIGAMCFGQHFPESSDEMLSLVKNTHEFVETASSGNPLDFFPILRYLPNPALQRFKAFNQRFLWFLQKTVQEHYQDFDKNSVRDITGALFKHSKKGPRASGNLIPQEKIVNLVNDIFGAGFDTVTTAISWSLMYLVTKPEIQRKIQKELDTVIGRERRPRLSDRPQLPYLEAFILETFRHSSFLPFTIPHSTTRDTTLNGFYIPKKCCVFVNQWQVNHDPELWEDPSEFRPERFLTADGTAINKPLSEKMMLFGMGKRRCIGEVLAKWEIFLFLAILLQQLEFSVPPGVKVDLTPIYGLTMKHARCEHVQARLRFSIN
In words: Cytochrome P450 inhibition CYP1A2. The procedure:
(§1) Test compound (0.1, 0.25, 1, 2.5, 10, 25 μM in DMSO; final DMSO concentration 0.3%) was incubated with human liver microsomes (0.25 mg/mL) and NADPH (1 mM) in the presence of a cytochrome P450 isoform-specific probe substrate. The metabolites were monitored by LC-MS/MS and a decrease in the formation of the metabolite compared to the vehicle control used to calculate an IC50 value (test compound concentration which produces 50% inhibition). A cytochrome P450 isoform-specific selective inhibitor was screened alongside the test compounds as a positive control.

In the next test the target is T2, CYP2B6 (Homo sapiens, UniProt P20813).
T2 construct: from tissue; host or cells: human liver microsomes
T2 sequence (P20813 1-491): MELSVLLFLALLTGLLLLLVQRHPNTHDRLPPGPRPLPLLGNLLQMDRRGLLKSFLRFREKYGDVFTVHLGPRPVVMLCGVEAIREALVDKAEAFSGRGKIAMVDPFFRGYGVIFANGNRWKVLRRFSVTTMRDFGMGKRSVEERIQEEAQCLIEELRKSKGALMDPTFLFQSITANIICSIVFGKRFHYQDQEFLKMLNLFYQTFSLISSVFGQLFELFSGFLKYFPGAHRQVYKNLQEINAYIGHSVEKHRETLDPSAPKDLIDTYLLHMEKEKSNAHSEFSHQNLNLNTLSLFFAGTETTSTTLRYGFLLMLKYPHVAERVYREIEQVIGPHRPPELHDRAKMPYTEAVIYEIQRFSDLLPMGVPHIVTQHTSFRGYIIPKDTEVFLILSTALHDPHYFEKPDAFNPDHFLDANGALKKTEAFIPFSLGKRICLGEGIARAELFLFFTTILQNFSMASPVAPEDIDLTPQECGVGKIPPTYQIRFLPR
In words: Cytochrome P450 inhibition CYP2B6. The procedure: as §1

The next test has as its target T3, CYP2C8 (Homo sapiens, UniProt P10632).
T3 construct: from tissue; host or cells: human liver microsomes
T3 sequence (P10632 1-490): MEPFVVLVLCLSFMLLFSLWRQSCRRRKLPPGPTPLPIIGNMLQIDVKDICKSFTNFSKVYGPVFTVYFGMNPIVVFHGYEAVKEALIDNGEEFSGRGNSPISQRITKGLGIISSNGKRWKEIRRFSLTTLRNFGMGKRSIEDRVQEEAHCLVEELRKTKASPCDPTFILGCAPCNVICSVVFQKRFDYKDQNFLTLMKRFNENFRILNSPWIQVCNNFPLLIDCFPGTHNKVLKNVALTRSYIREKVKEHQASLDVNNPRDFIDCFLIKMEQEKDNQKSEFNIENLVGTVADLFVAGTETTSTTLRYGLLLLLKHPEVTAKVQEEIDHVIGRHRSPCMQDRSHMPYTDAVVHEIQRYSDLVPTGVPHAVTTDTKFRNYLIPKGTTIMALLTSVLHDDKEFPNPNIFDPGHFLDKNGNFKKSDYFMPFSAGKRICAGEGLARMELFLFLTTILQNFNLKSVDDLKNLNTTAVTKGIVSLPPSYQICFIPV
In words: Cytochrome P450 inhibition CYP2C8. The method, then:
as §1

Another test deals with T4, CYP2C9 (Homo sapiens, UniProt P11712).
T4 construct: from tissue; host or cells: human liver microsomes
In words: Cytochrome P450 inhibition CYP2C9. The method, then:
as §1

The target of a further test is T5, CYP2C19 (Homo sapiens, UniProt P33261).
T5 construct: from tissue; host or cells: human liver microsomes
In words: Cytochrome P450 inhibition CYP2C19. The procedure: as §1

A further test has as its target T6, CYP2D6 (Homo sapiens, UniProt P10635).
T6 construct: from tissue; host or cells: human liver microsomes
In words: Cytochrome P450 inhibition CYP2D6. The method, then:
as §1

Another test deals with T7, CYP3A4 (Homo sapiens, UniProt P08684).
T7 construct: from tissue; host or cells: human liver microsomes
In words: Cytochrome P450 inhibition CYP3A4. The procedure: as §1

Read-outs that look alike come from different tables or passages of the source.

T7 sequence (P08684 whole entry): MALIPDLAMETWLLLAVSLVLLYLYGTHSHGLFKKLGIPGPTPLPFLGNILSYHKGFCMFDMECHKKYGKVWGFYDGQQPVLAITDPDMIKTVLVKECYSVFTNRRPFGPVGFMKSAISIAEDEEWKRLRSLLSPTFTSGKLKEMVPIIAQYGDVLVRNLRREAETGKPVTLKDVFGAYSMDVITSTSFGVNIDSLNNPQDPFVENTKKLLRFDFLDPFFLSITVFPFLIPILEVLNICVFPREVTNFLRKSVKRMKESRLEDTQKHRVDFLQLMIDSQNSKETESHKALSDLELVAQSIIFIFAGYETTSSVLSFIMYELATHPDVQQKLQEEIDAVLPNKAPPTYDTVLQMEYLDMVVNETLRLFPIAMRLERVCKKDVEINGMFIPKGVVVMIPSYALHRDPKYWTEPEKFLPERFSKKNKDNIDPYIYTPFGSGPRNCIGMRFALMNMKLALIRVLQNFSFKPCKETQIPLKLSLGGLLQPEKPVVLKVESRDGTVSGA
T5 sequence (P33261 whole entry): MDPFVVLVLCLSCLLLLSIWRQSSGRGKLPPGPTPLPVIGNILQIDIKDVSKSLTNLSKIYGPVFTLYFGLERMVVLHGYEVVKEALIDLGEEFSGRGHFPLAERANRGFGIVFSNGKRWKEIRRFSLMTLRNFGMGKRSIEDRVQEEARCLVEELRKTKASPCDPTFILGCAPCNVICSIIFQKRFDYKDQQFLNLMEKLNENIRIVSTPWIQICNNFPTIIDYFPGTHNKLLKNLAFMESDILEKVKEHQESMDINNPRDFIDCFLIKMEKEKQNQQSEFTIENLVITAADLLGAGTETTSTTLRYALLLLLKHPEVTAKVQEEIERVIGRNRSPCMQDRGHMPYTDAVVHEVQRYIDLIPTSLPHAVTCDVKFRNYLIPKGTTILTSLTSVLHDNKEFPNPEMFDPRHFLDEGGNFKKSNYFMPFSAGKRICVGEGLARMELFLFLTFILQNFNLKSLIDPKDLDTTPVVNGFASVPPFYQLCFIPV
T4 sequence (P11712 whole entry): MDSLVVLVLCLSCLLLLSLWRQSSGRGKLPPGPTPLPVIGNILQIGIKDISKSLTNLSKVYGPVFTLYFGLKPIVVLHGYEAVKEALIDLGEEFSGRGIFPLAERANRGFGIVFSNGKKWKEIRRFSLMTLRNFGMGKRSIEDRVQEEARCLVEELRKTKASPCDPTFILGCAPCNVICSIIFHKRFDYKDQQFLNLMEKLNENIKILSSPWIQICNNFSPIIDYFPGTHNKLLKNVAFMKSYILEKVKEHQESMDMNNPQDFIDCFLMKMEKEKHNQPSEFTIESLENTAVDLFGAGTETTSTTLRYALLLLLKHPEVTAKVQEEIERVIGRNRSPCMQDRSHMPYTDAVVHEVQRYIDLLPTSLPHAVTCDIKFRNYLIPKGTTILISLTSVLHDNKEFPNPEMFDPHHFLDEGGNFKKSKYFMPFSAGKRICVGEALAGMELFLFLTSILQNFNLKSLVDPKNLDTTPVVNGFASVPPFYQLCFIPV
T6 sequence (P10635 whole entry): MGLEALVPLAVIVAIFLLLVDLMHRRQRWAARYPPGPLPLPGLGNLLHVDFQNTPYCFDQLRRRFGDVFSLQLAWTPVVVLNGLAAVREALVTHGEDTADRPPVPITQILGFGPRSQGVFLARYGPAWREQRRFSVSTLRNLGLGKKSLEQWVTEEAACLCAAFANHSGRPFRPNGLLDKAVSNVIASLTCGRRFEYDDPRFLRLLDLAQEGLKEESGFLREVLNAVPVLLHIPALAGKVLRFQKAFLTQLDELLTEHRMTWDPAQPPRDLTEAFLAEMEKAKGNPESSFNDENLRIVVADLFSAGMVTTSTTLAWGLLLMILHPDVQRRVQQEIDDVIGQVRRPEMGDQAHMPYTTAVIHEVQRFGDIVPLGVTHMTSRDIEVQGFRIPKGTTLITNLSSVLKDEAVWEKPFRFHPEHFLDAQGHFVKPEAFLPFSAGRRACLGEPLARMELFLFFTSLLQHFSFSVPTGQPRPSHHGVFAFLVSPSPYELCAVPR

For the molecule `CS(=O)(=O)N1CCC(n2c(CN3C(=O)C4(CC4)c4ccc(F)cc43)nc3cc(Cl)ccc32)CC1` [Compound 33, 1′-{[5-Chloro-1-(1-methanesulfonylpiperidin-4-yl)-1H-1,3-benzodiazol-2-yl]methyl}-6′-fluoro-1′,2′-dihydrospiro[cyclopropane-1,3′-indole]-2′-one], the IC50 on CYP1A2, against CYP2B6, on CYP2C8, against CYP2C9, on CYP2C19 and on CYP2D6 was more than 25 µM in each case. In addition, the concentration for half-maximal inhibition (IC50) at CYP3A4 (substrate = midazolam, read-out: Cytochrome P450 inhibition IC50 CYP3A4 (midazolam)) stood at 0.674 µM; on CYP3A4 (substrate = testosterone, read-out: Cytochrome P450 inhibition IC50 CYP3A4 (testosterone)), 3.94 µM.

As a reminder, the IC50 is the point on the concentration scale where inhibition reaches its midpoint.

Values taken from patent publication US11078189B2, “Pharmaceutical compounds” (REVIRAL LIMITED, priority 2017, dated 2021).
